39 molecules from patent publication US7531545B2, “2-amino-3,4-dihydro-pyrido[3,4-d]pyrimidine derivatives useful as inhibitors of β-secretase (BACE)” (Janssen Pharmaceutica, N.V., priority 2005, dated 2009) can be followed below.

The term inhibition denotes the relative decrease from the control value, in per cent. In general, IC50 refers to the concentration that inhibits the measured activity by half.

Where “and” joins values, the source holds several entries; their conditions need not be identical. Identical values can stand only once.

This assay deals with human BACE-1 (Homo sapiens, UniProt P56817). The assay is described as follows: CEREP BACE Inhibition Assay. It is filed as biochemical. As to conditions: recombinant enzyme; for inhibition at 1 µM: read-out: % Inhibition @ 1.0 μM; for IC50: read-out: IC50. Here is the method: More specifically the assay, run at 50 μL in a 96 well plate, evaluated the effect of test compound on the activity of the human BACE-1 quantified by measuring the formation of Mca-S-E-V-N-L-NH2 from […], using a recombinant enzyme. The test compound, reference compound or water (control) were added to a buffer containing 0.09 M sodium acetate (pH 4.5) and 0.25 μg BACE-1. Compound interference with the fluorimetric detection method due to autofluorescence was then checked by measurements at the wavelengths defined to evaluate the enzyme activity. […] For control basal measurement, the substrate was omitted from the reaction mixture. […] The standard inhibitory reference compound was OM99-2, which was tested in each experiment at several concentrations to obtain an inhibition curve from which its IC50 value was calculated.

[1] abbreviates: percent inhibition of the control activity.

human BACE-1, sequence (P56817 46-501): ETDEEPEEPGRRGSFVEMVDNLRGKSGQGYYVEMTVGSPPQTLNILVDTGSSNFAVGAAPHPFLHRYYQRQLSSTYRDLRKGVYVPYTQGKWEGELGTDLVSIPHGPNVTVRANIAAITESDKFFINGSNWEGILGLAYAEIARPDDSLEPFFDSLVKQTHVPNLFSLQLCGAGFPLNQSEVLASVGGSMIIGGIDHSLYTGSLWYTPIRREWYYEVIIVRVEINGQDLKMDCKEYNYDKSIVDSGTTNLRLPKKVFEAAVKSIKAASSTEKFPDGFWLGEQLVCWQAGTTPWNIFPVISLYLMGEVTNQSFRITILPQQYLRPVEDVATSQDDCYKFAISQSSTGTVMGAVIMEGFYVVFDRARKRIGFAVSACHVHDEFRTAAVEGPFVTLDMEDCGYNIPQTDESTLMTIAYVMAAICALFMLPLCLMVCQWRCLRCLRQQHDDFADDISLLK

As to `NC1=Nc2cnc(Oc3ccccc3)cc2CN1[C@@H](CCCNCC1CC1)C1CCCCC1` [Compound 213], the concentration for half-maximal inhibition (IC50) came out at 0.24 µM. Besides, the inhibition at 1 µM under setting [1] was determined as 88%.
Taken in the same sequence, the figures for `CC(C)(C)OCCN(Cc1cccs1)C(=O)CC[C@@H](C1CCCCC1)N1Cc2cc(Oc3ccccc3)ncc2N=C1N` [Compound 154] were 0.11 µM and 102%.
Regarding `CN(C(=O)CC[C@@H](C1CCOCC1)N1Cc2cc(Oc3ccccc3)ncc2N=C1N)[C@@H](COCc1ccccc1)C(=O)O` [Compound 58], the IC50 came to 0.27 µM. The inhibition at 0.3 µM under setting [1] is 57%.
Take `CC(C)[C@H](COCc1cc(C(C)(C)C)no1)N1Cc2cc(Oc3ccccc3)ncc2N=C1N` [Compound 237]: the IC50 is 0.27 µM. Moreover, the inhibition at 1 µM under setting [1] was determined as 87%.
For `CC(C)(C)CNC(=O)CC[C@@H](C1CCCCC1)N1Cc2cc(Oc3ccccc3)ncc2N=C1N` [Compound 160], the IC50 turned out to be 0.066 µM. For the same molecule, under setting [1], the “% Inhibition @ 1.0 μM” value was 101%.
With `CC(C)(C)OCCN(Cc1cncs1)C(=O)CC[C@@H](C1CCCCC1)N1Cc2cc(Oc3ccccc3)ncc2N=C1N` [Compound 159], the half-maximal inhibitory concentration (IC50) came out at 0.11 µM. Further, the inhibition at 1 µM under setting [1] is 102%.
For the molecule `NC1=Nc2cnc(Oc3ccccc3)cc2CN1[C@@H](CCC(=O)N(CC(=O)O)C1CCCCC1)C1CCCCC1` [Compound 84, {[4-(2-Amino-6-phenoxy-4H-pyrido[3,4-d]pyrimidin-3-yl)-4-(S)-cyclohexyl-butyryl]cyclohexyl-amino}-acetic acid], the concentration for half-maximal inhibition (IC50) was 0.1 µM. The inhibition at 0.3 µM under setting [1] is 100%.
As to `CC(C)[C@H](COCCC1CCCCC1)N1Cc2cc(Oc3ccccc3)ncc2N=C1N` [Compound 232, 3-[1-(2-cyclohexyl-ethoxymethyl)-(R)-(2-methyl-propyl)]-6-phenoxy-3,4-dihydro-pyrido[3,4-d]pyrimidin-2-ylamine], the IC50 came out at 0.11 µM. The inhibition at 1 µM under setting [1] was determined as 99%.
For `CC(C)CN(C)CCC[C@@H](C1CCCCC1)N1Cc2cc(Oc3ccccc3)ncc2N=C1N` [Compound 209] the same measures were 0.12 µM and 93%.
For `CC(C)CNC(=O)CC[C@@H](C1CCCCC1)N1Cc2cc(Oc3ccccc3)ncc2N=C1N` [Compound 208] the same measures were 0.13 µM and 98%.
Taken in the same sequence, the figures for `C[C@H](CO)N(C)C(=O)CC[C@@H](C1CCCCC1)N1Cc2cc(Oc3ccccc3)ncc2N=C1N` [Compound 183] were 0.58 µM and 70%.
Regarding `CC(C)=CCOC[C@@H](C(C)C)N1Cc2cc(Oc3ccccc3)ncc2N=C1N` [Compound 233, 3-[2-Methyl-1-(3-methyl-but-2-enyloxymethyl)-propyl]-6-phenoxy-3,4-dihydro-pyrido[3,4-d]pyrimidin-2-ylamine], the concentration for half-maximal inhibition (IC50) was determined as 0.88 µM. Further, under setting [1], the inhibition at 1 µM was found to be 52%.
Regarding `C[C@@H](CO)NC(=O)[C@@H](COC(C)(C)C)NC(=O)CC[C@@H](C1CCCCC1)N1Cc2cc(Oc3ccccc3)ncc2N=C1N` [Compound 108], the IC50 was 0.14 µM. In addition, the inhibition at 0.3 µM under setting [1] worked out at 94%.
As for `CC(C)(C)CCN(CCC[C@@H](C1CCCCC1)N1Cc2cc(Oc3ccccc3)ncc2N=C1N)CCN1CCOCC1` [Compound 182], the IC50 came to 0.089 µM. Also, under setting [1], the inhibition at 1 µM worked out at 100%.
Taken in the same sequence, the figures for `CC(C)CN(CCC[C@@H](C1CCCCC1)N1Cc2cc(Oc3ccccc3)ncc2N=C1N)CCN1CCOCC1` [Compound 192] were 0.073 µM and 101%.
In the case of `CN(C(=O)CC[C@@H](C1CCOCC1)N1Cc2cc(Oc3ccccc3)ncc2N=C1N)[C@H](COC(C)(C)C)C(=O)O` [Compound 60], the IC50 came to 0.1 µM. In addition, the inhibition at 0.3 µM under setting [1] was 91%.
For `NC1=Nc2cnc(Oc3ccccc3)cc2CN1[C@@H](CCC(=O)N(CCOCCOCCOCCO)C1CCCCC1)C1CCCCC1` [Compound 176, 4-(2-Amino-6-phenoxy-4H-pyrido[3,4-d]pyrimidin-3-yl)-4-(S),N-dicyclohexyl-N-(2-{2-[2-(2-hydroxy-ethoxy)-ethoxy]-ethoxy}-ethyl)-butyramide], the IC50 turned out to be 0.14 µM. Besides, the inhibition at 1 µM under setting [1] was 101%.
For `CC(C)(C)OCCN(Cc1ccsc1)C(=O)CC[C@@H](C1CCCCC1)N1Cc2cc(Oc3ccccc3)ncc2N=C1N` [Compound 156] the same measures were 0.1 µM and 102%.
In the case of `CC(C)[C@H](CCC(=O)N[C@@H](COC(C)(C)C)C(=O)O)N1Cc2cc(Oc3ccccc3)ncc2N=C1N` [Compound 70], the IC50 was found to be 0.26 µM. For the same molecule, the inhibition at 0.3 µM under setting [1] stood at 66%.
Taken in the same sequence, the figures for `CC(C)[C@H](CCC(=O)N[C@@H](COC(C)(C)C)CN1CCCCC1)N1Cc2cc(Oc3ccccc3)ncc2N=C1N` [Compound 101] were 0.32 µM and 43%.
As to `CN(CCC[C@@H](C1CCCCC1)N1Cc2cc(Oc3ccccc3)ncc2N=C1N)C1CCCCC1` [Compound 187], the half-inhibitory concentration (IC50) stood at 0.044 µM. The inhibition at 1 µM under setting [1] amounted to 99%.
Regarding `CC(C)(C)CNC(=O)C[C@@H](C1CCCCC1)N1Cc2cc(Oc3ccccc3)ncc2N=C1N` [Compound 200], the IC50 was 0.78 µM and 0.76 µM. Moreover, under setting [1], the “% Inhibition @ 1.0 μM” value was 53% and the inhibition at 1 µM stood at 50%.
`COC(=O)[C@H](COCc1ccccc1)N(C)C(=O)CC[C@@H](C1CCOCC1)N1Cc2cc(Oc3ccccc3)ncc2N=C1N` [Compound 56]: the IC50 was determined as 0.075 µM. Moreover, under setting [1], the inhibition at 0.3 µM came to 93%.
Take `CN(C(=O)CCC(C1CCCCC1)N1Cc2cc(Oc3ccccc3)ncc2N=C1N)C1CCS(=O)(=O)C1` (stereo not drawn) [Compound 170]: the IC50 is 0.83 µM. Further, under setting [1], the inhibition at 1 µM came out at 48%.
Taken in the same sequence, the figures for `CC(C)(C)OC[C@@H](NC(=O)CC[C@@H](C1CCCCC1)N1Cc2cc(Oc3ccccc3)ncc2N=C1N)C(N)=O` [Compound 111] were 0.11 µM and 100%.
Taken in the same sequence, the figures for `C[C@@H](OCc1ccccc1)[C@H](CCC(=O)N(CCC(C)(C)C)Cc1ccncc1)N1Cc2cc(Oc3ccccc3)ncc2N=C1N` [Compound 185, 4-(S)-(2-Amino-6-phenoxy-4H-pyrido[3,4-d]pyrimidin-3-yl)-5-(R)-benzyloxy-hexanoic acid (3,3-dimethyl-butyl)-pyridin-4-ylmethyl-amide] were 0.27 µM and 85%.
For `CC(C)(CO)NC(=O)CC[C@@H](C1CCCCC1)N1Cc2cc(Oc3ccccc3)ncc2N=C1N` [Compound 180] the same measures were 0.091 µM and 99%.
Regarding `CC(C)[C@H](COCC1CC(C(C)(C)C)=NO1)N1Cc2cc(Oc3ccccc3)ncc2N=C1N` (stereo partly drawn) [Compound 236, 3-[1-(3-tert-Butyl-4,5-dihydro-isoxazol-5-ylmethoxymethyl)-2-methyl-propyl]-6-phenoxy-3,4-dihydro-pyrido[3,4-d]pyrimidin-2-ylamine], the IC50 is 0.18 µM. For the same molecule, the inhibition at 1 µM under setting [1] is 92%.
Taken in the same sequence, the figures for `CC(C)(C)CCN(CCN)C(=O)CC[C@@H](C1CCCCC1)N1Cc2cc(Oc3ccccc3)ncc2N=C1N` [Compound 146] were 0.072 µM and 100%.
For `CC(C)(CO)CNC(=O)CC[C@@H](C1CCCCC1)N1Cc2cc(Oc3ccccc3)ncc2N=C1N` [Compound 179] the same measures were 0.081 µM and 100%.
In the case of `NC1=Nc2cnc(Oc3ccccc3)cc2CN1[C@@H](CCC(=O)N1CCCC[C@H]1C(=O)O)C1CCCCC1` [Compound 91], the IC50 was found to be 0.34 µM. Also, under setting [1], the inhibition at 0.3 µM stood at 70%.
Regarding `NC1=Nc2cnc(Oc3ccccc3)cc2CN1[C@@H](CCC(=O)NC[C@H]1CCCO1)C1CCCCC1` [Compound 210], the 50% inhibitory concentration (IC50) amounted to 0.12 µM. Further, the inhibition at 1 µM under setting [1] is 98%.
Turning to `CC(C)(C)OC[C@@H](NC(=O)CC[C@@H](C1CCCCC1)N1Cc2cc(Oc3ccccc3)ncc2N=C1N)C(=O)N[C@@H](CCC(=O)O)C(=O)O` [Compound 225], the IC50 came to 0.11 µM. For the same molecule, the “% Inhibition @ 1.0 μM” value under setting [1] stood at 96%.
Take `CC(C)(C)c1cn(C[C@@H](C2CCCCC2)N2Cc3cc(Oc4ccccc4)ncc3N=C2NN)nn1` [Compound 245, {3-[2-(4-tert-Butyl-[1,2,3]triazol-1-yl)-1-(R)-cyclohexyl-ethyl]-6-phenoxy-3,4-dihydro-pyrido[3,4-d]pyrimidin-2-yl}-hydrazine]: the inhibition at 10 µM (10.0 μM, percent inhibition of the control activity) was 29%.
On to `CC(C)(C)OC[C@H](CN1CCOCC1)NC(=O)CC[C@@H](C1CCCCC1)N1Cc2cc(Oc3ccccc3)ncc2N=C1N` [Compound 102, 4-(2-Amino-6-phenoxy-4H-pyrido[3,4-d]pyrimidin-3-yl)-N-(2-(R)-tert-butoxy-1-morpholin-4-ylmethyl-ethyl)-4-(S)-cyclohexyl-butyramide], for which the IC50 is 0.46 µM. For the same molecule, the inhibition at 0.3 µM under setting [1] turned out to be 55%.
With `CC(C)C(COCC1CC(CC(C)(C)C)=NO1)N1Cc2cc(Oc3ccccc3)ncc2N=C1N` (stereo not drawn) [Compound 238], the IC50 worked out at 0.54 µM. Also, under setting [1], the inhibition at 1 µM turned out to be 72%.
For `NC1=Nc2cnc(Oc3ccccc3)cc2CN1[C@@H](CCC(=O)N1CCOCC1)C1CCCCC1` [Compound 166] the same measures were 0.2 µM and 85%.
For `CC(C)(C)OC[C@@H](NC(=O)CC[C@@H](C1CCCCC1)N1Cc2cc(Oc3ccccc3)ncc2N=C1N)C(=O)N[C@@H](CCC(=O)O)C(=O)O` [Compound 224] the same measures were 0.082 µM and 100%.
Regarding `NC1=Nc2cnc(Oc3ccccc3)cc2CN1[C@@H](CCC(=O)N(Cc1ccncc1)C1CCCCC1)C1CCCCC1` [Compound 79], the IC50 worked out at 0.15 µM. Under setting [1], the inhibition at 0.3 µM turned out to be 88%.
